Reference: ChEMBL document CHEMBL6103615, “Thymidylate Kinase-Targeted Antimicrobial Peptides via Phage Display: A Novel Strategy against Gram-Negative Bacteria” (J Med Chem, 2025)
Values after ≈ are worked out from the molar mass of the structure shown. Active and inactive are the calls of the source. The rule behind the calls is not given here.

How the values were obtained:
Escherichia coli [1] = assay: Binding affinity to Escherichia coli K88 TraV at 128 uM by BLI assay
Escherichia coli [2] = assay: Binding affinity to Escherichia coli K88 TMK at 128 uM by BLI assay
[3] = Cytotoxicity against mouse RAW264.7 cells assessed as cell viability at 128 uM incubated for 4 hrs by MTT assay relative to control; format: toxicity, cell-based; conditions: read-out: Activity
[4] = Cytotoxicity against porcine IPEC-J2 cells assessed as cell viability at 128 uM incubated for 4 hrs by MTT assay relative to control; format: toxicity, cell-based, Sus scrofa; conditions: pig, read-out: Activity
[5] = Antibacterial activity against Salmonella choleraesuis 21493 incubated for 12 to 18 hrs by microbroth dilution method; format: functional, Salmonella enterica subsp. enterica serovar Choleraesuis; conditions: Salmonella enterica, time 12-18 hrs
[6] = system: Lacticaseibacillus rhamnosus; assay: Antibacterial activity against Lactobacillus rhamnosus 7469 incubated for 12 to 18 hrs by microbroth dilution method; format: functional; conditions: time 12-18 hrs
[7] = system: Lactiplantibacillus plantarum; assay: Antibacterial activity against Lactobacillus plantarum 8014 incubated for 12 to 18 hrs by microbroth dilution method; format: functional; conditions: time 12-18 hrs
[8] = Hemolytic activity against human red blood cells at 2 to 128 uM relative to control; format: toxicity, cell-based, Erythrocyte; conditions: dose 2-128 µM, read-out: Activity
Lactococcus lactis = assay: Antibacterial activity against Lactococcus lactis NZ9000 incubated for 12 to 18 hrs by microbroth dilution method; format: functional; conditions: time 12-18 hrs
Enterococcus faecalis = assay: Antibacterial activity against Enterococcus faecalis 29212 incubated for 12 to 18 hrs by microbroth dilution method; format: functional; conditions: time 12-18 hrs
[9] = Hydrophobicity of compound; format: physicochemical
[10] = Relative hydrophobic moment of compound; format: physicochemical
[11] = system: Staphylococcus epidermidis; assay: Antibacterial activity against Staphylococcus epidermidis 12228 incubated for 12 to 18 hrs by microbroth dilution method; format: functional; conditions: time 12-18 hrs
Staphylococcus aureus [12] = assay: Antibacterial activity against Staphylococcus aureus 25923 incubated for 12 to 18 hrs by microbroth dilution method; format: functional; conditions: time 12-18 hrs
Pseudomonas aeruginosa [13] = assay: Antibacterial activity against Pseudomonas aeruginosa PAO1 incubated for 12 to 18 hrs by microbroth dilution method; format: functional; conditions: time 12-18 hrs
Escherichia coli [14] = assay: Antibacterial activity against Escherichia coli 078 incubated for 12 to 18 hrs by microbroth dilution method; format: functional; conditions: time 12-18 hrs
Staphylococcus aureus [15] = assay: Antibacterial activity against methicillin-resistant Staphylococcus aureus 43300 incubated for 12 to 18 hrs by microbroth dilution method; format: functional; conditions: time 12-18 hrs
Staphylococcus aureus [16] = assay: Antibacterial activity against Staphylococcus aureus 29213 incubated for 12 to 18 hrs by microbroth dilution method; format: functional; conditions: time 12-18 hrs
Escherichia coli [17] = assay: Antibacterial activity against Escherichia coli 1515 incubated for 12 to 18 hrs by microbroth dilution method; format: functional; conditions: time 12-18 hrs
Salmonella typhimurium = assay: Antibacterial activity against Salmonella typhimurium 7731 incubated for 12 to 18 hrs by microbroth dilution method; format: functional, Salmonella enterica subsp. enterica serovar Typhimurium; conditions: Salmonella enterica, time 12-18 hrs
Pseudomonas aeruginosa [18] = assay: Antibacterial activity against Pseudomonas aeruginosa 27853 incubated for 12 to 18 hrs by microbroth dilution method; format: functional; conditions: time 12-18 hrs
Escherichia coli [19] = assay: Antibacterial activity against Escherichia coli K88 incubated for 12 to 18 hrs by microbroth dilution method; format: functional; conditions: time 12-18 hrs
Escherichia coli [20] = assay: Antibacterial activity against Escherichia coli K99 incubated for 12 to 18 hrs by microbroth dilution method; format: functional; conditions: time 12-18 hrs

Compound | viability at 4 h, 128 µM [3] [%] | viability at 4 h, 128 µM [4] [%] | MIC [5] [µM] | MIC [6] [µM] | MIC [7] [µM] | hemolysis at up to 128 µM [8] [%] | MIC (Lactococcus lactis) [µM] | MIC (Enterococcus faecalis) [µM] | Activity [9] | Activity [10] | MIC [11] [µM] | MIC (Staphylococcus aureus [12]) [µM] | MIC (Pseudomonas aeruginosa [13]) [µM] | MIC (Escherichia coli [14]) [µM] | MIC (Staphylococcus aureus [15]) [µM] | MIC (Staphylococcus aureus [16]) [µM] | MIC (Escherichia coli [17]) [µM] | MIC (Salmonella typhimurium) [µM] | MIC (Pseudomonas aeruginosa [18]) [µM] | MIC (Escherichia coli [19]) [µM] | also measured
CC[C@@H](C)[C@H](NC(=O)CNC(=O)[C@@H]1CCCN1C(=O)[C@H](CCCCN)NC(=O)[C@H](Cc1c[nH]c2ccccc12)NC(=O)[C@@H](NC(=O)[C@H](CCCCN)NC(=O)[C@H](CCCCN)NC(=O)[C@H](Cc1c[nH]c2ccccc12)NC(=O)[C@H](Cc1ccc(O)cc1)NC(=O)[C@H](CCCCN)NC(=O)[C@@H](NC(=O)[C@H](CC(C)C)NC(=O)[C@H](CC(N)=O)NC(=O)CNC(=O)[C@H](CO)NC(=O)CCCC[C@@H]1SC[C@@H]2NC(=O)N[C@@H]21)[C@@H](C)O)[C@@H](C)CC)C(=O)N[C@@H](CCCCN)C(=O)N[C@@H](CCCCN)C(=O)N[C@@H](Cc1c[nH]c2ccccc12)C(=O)N[C@H](C(=O)N[C@@H](CCCCN)C(=O)O)[C@H](C)CC |  |  |  |  |  |  |  |  |  |  |  |  |  |  |  |  |  |  |  |  | Activity (Escherichia coli [1]): Active; Activity (Escherichia coli [2]): Active
CC[C@H](C)[C@H](NC(=O)CN)C(=O)NCC(=O)N[C@@H](C)C(=O)N[C@H](C(=O)N[C@@H](CC(C)C)C(=O)N[C@@H](CCCCN)C(=O)N[C@H](C(=O)N[C@@H](CC(C)C)C(=O)N[C@H](C(=O)N[C@H](C(=O)NCC(=O)N[C@@H](CC(C)C)C(=O)N1CCC[C@H]1C(=O)N[C@@H](C)C(=O)N[C@@H](CC(C)C)C(=O)N[C@H](C(=O)N[C@@H](CO)C(=O)N[C@@H](Cc1c[nH]c2ccccc12)C(=O)N[C@H](C(=O)N[C@@H](CCCCN)C(=O)N[C@@H](CCCNC(=N)N)C(=O)N[C@@H](CCCCN)C(=O)N[C@@H](CCCNC(=N)N)C(=O)N[C@@H](CCC(N)=O)C(=O)N[C@@H](CCC(N)=O)C(N)=O)[C@@H](C)CC)[C@@H](C)CC)[C@@H](C)O)[C@@H](C)O)C(C)C)C(C)C [MELITTIN] | > 80 | > 80 | 4 (≈ 11.4 µg/mL) | 2 (≈ 5.69 µg/mL) | 2 (≈ 5.69 µg/mL) | < 5 | 2 (≈ 5.69 µg/mL) | 2 (≈ 5.69 µg/mL) |  |  |  |  |  |  |  |  |  |  |  |  | 
H-CFASAPRWKKIWKPGIKKWIK-OH [listing 1 of 2 here] | > 80 | > 80 |  |  |  | < 5 |  |  | 0.502 | 0.562 |  |  |  |  |  |  |  |  |  |  | 
H-CFASAPRWKKIWKPGIKKWIK-OH [listing 2 of 2 here] |  |  | 16 | 128 | 128 |  | 128 | 128 |  |  | 128 | 128 | 8 | 16 | 128 | 128 | 8 | 16 | 32 | 8 | MIC (Escherichia coli [20]): 16 µM
H-EMPGYNSWKKIWKPGIKKWIK-OH | > 80 | > 80 | 64 | 128 | 128 | < 5 | 128 | 128 | 0.408 | 0.475 | 128 | 128 | 32 | 128 | 128 | 128 | 64 | 64 | 64 | 32 | MIC (Escherichia coli [20]): 32 µM
